{"source": "patent US11701369B2", "about": "“Polymeric bile acid derivatives inhibit Hepatitis B and D virus and NTCP transport” (Huahui Health Ltd., priority 2014, dated 2023)", "key": {"[1]": {"tested_on": "HBV", "experiment": "In vitro stability: incubation with HBV inocula before infection, HBeAg ELISA", "format": "cell-based, Hepatitis B virus", "settings": "incubated with HBV inocula for different times before infection, HBeAg at 5 dpi", "description": "FIG. 10 The influence of the linkage groups on the in vitro stability of PBADs. TUDCA, NQL018, NQL044, and NQL055 were incubated with HBV inocula of different times before viral infection, and present in the inocula during infection period. The level of secreted HBeAg was detected by ELISA at 5 dpi.\nThe in vitro stability of PBADs could PBADs could be enhanced by optimization of the linkage bond. We conducted stability analysis of several PBADs with similar structure but of different linkage. […] This indicates the in vitro and in vivo stability is to a large extent determined by the feature of the linkage groups."}, "[2]": {"tested_on": "HDV", "experiment": "HDV infection assay on HepG2-NTCP cells (intracellular delta antigen staining)", "format": "cell-based, Hepatitis D virus", "description": "(§1) HBV and HDV infection assay. HepG2NTCP Cells were cultured in PMM for 12-24 hrs before infection, and then inoculated with 200 multiplicities of genome equivalents (mge) of HBV, or 500 mge of HDV in the presence of 5% PEG8000 in PMM at 37° C. for about 24 hrs. Chemicals to be tested were added to the cells as indicated in the specific assays. The inoculum was replenished by PMM post infection. The infections were detected at day 5 post infection (dpi).\nImmunostaining assay. For HBV infection, infected cells were washed twice with PBS and fixed in 3.7% paraformaldehyde (PFA) at room temperature for 10 mins. Subsequently, cells were permeabilized with 0.5% Trition X-100/PBS for 10 mins at room temperature, blocked with 3% BSA at 37° C. for 1 hour, and followed by incubating with 5 μg/ml mouse mAb1C10 which recognizes HBcAg, and followed by staining with FITC-conjugated secondary antibody. Nucleus was stained with DAPI in blue. The stained cells were imaged with the fluorescence microscope (Nikon). For HDV infection, on 5 dpi, HDV infected cells were fixed with 100% methanol at room temperature for 10 mins, intracellular delta antigens were then stained with 5 μg/ml of FITC conjugated 4G5 and nucleus were stained with DAPI in blue. Images were collected by an Eclipse Ti Fluorescence Microscope (Nikon) and a representative picture is shown."}, "[3]": {"tested_on": "HBV", "experiment": "HBV infection assay on HepaRG cells (HBsAg and HBeAg ELISA)", "format": "cell-based, Hepatitis B virus", "settings": "HBsAg and HBeAg at 5 dpi", "description": "FIG. 11 HepaRG cells were infected with HBV in the presence of indicated PBADs. The level of secreted HBsAg and HBeAg was detected by ELISA at 5 dpi.\nThe antiviral potency of PBADs is also repeatable on other HBV infection system (HepaRG) with similar inhibition profile. […] HBV infection was conducted in the presence of NQL028, NQL018, NQL029, NQL019 and NQL021, all of which were bis-ester based PBADs with different linkage length."}, "[4]": {"target": "T1, NTCP (Homo sapiens, UniProt Q14973)", "T1 construct": "expressed in transfected cells", "T1 sequence (Q14973 1-349)": "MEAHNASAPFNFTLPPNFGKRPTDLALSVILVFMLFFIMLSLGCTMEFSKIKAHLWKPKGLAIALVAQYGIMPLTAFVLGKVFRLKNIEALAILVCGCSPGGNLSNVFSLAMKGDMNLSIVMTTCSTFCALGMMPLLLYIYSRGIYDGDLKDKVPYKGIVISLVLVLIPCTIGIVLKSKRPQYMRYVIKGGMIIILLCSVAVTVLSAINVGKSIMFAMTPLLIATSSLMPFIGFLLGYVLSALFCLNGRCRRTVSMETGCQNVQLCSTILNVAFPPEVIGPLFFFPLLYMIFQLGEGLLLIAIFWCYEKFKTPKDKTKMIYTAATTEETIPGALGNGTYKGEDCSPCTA", "experiment": "FITC-preS1 peptide binding assay", "description": "FITC-preS1 peptide binding assay. NTCP expressing cells were cultured in PTH maintenance medium (PMM) for 24 hrs before conducting this assay. For Immunofluorescence microscopy, cells were incubated with 400 nM FITC-pre-S1 peptide diluted in WME or PMM at 37° C. for about 2-3 hrs. Subsequently, cells were washed once by WME, and then directly visualized with a Fluorescence Microscope."}, "[5]": {"tested_on": "HBV", "experiment": "HBV infection assay on HepG2-NTCP cells (secreted HBeAg by ELISA)", "format": "cell-based, Hepatitis B virus", "settings": "for inhibition of HBV infection (in words): secreted HBeAg", "description": "as §1\nELISA assay for the detection of HBeAg and HBsAg. ELISA kits for HBeAg and HBsAg detection were from Wantai Pharm Inc. (Beijing, China). Supernatant from infected HepG2NTCP cells was collected on 2-5 days post infection. The secreted HBeAg and HBsAg in the culture medium was measured with a commercial kit from Wantai Pharm Inc (Beijing, China) by following the manufactory's instructions."}, "[6]": {"target": "T1, NTCP", "experiment": "[3H] taurocholate uptake assay on HepG2-NTCP cells", "format": "cell-based", "settings": "for inhibition of NTCP substrate uptake (in words): co-incubation assay, [3H] taurocholate, 10 min; for IC50: pretreatment assay, HepG2-NTCP cells pretreated 2 hrs before uptake assay, read-out: IC50 for inhibiting NTCP-mediated [3H] taurocholate uptake", "description": "[3H] substrate uptake assay. [3H]taurocholate uptake assay was conducted following a protocol as previously described(60). In general, HepG2-NTCP cells were cultured in PMM for 12-24 hrs, then were treated with or without indicated chemicals before uptake assay. For substrate uptake assay, cells were generally incubated with 0.5 μl (0.5 μCi) [3H]-taurocholate dissolved in Na+ Ringer's solutions for 10 mins at 37° C. with or without the presence of chemicals. Subsequently, cells were washed once by PBS and lysed by 100 μl of 1% TritonX-100 in H2O for 5 mins at room temperature. The lysate was transferred into liquid scintillation tube and mixed with 900 μl liquid scintillation cocktail (Ultima GOLD™ XR) (Perkin Elmer, USA). Liquid scintillation counting was performed on a Perkin Elmer 1450 LSC Liquid Scintillation Counter and Luminescence Counter."}, "[7]": {"tested_on": "HepG2-NTCP cells", "experiment": "In vitro cytotoxicity on HepG2-NTCP cell line", "format": "cell-based", "description": "FIG. 6 Toxicity of 3UT(NQL-012), DiU(NQL-009) and 3TPT(NQL-018) in cell cultures. HepG2-NTCP cells were incubated with 3UT(NQL-012), DiU(NQL-009) or 3TPT(NQL-018) at indicated concentrations for 48 hrs, cell viability was evaluated and images were captured at 5 dpi.\nIn vitro cytotoxicity of PBADs. We also conducted experiments to determine the LD50 on HepG2-NTCP cell line of the three PBADs (3-UT (NQL-012), DIU (NQL-009), 3TPT (NQL-018)). We treated cells by different concentrations of PBADs for 48 hrs and captured the images of cells after they were further cultured for 3 days in PMM. […] No detectable cytotoxicity was observed upon treatment of DIU(NQL-009) and 3TPT(NQL-018) up to 200 μM, which is 2000-4000 folds higher than its inhibitory concentration for HBV infection."}, "[8]": {"settings": "Hepatitis B virus, read-out: IC50 for inhibiting HBV infection, HepG2-NTCP cells, PBAD present during infection, HBeAg in medium at 5 dpi"}}, "note": "Entries after “also recorded” stand apart in the source; their conditions may differ. Read-outs that look alike come from different tables or passages of the source.", "data": [{"compound": "C[C@H](CCC(=O)NCCS(=O)(=O)O)[C@H]1CC[C@H]2[C@@H]3[C@@H](O)CC4C[C@H](OC(=O)CCCC(=O)O[C@@H]5CC[C@@]6(C)C(C5)C[C@H](O)[C@H]5[C@@H]7CC[C@H]([C@H](C)CCC(=O)NCCS(=O)(=O)O)[C@@]7(C)CC[C@@H]56)CC[C@]4(C)[C@H]3CC[C@]12C", "note": "(stereo in doubt) [NQL-018]", "values": [{"measurement": "in vitro stability (antiviral potency after long incubation with the inoculum)", "setting": "[1]", "result": "not stable upon long time incubation with the inoculum; also recorded: decreased activity after long time incubation"}, {"measurement": "inhibition of HDV infection (in words)", "setting": "[2]", "result": "high antiviral activity; also recorded: greatly improved potency"}, {"measurement": "inhibition of HBV infection on HepaRG cells (in words)", "setting": "[3]", "result": "inhibited HBV infection"}, {"measurement": "blocking of FITC-preS1 binding to NTCP (in words)", "setting": "[4]; HepG2-NTCP cells, pretreatment versus co-incubation, 3 hrs", "result": "effect of pretreatment of 3TPT(NQL-018) was not as strong as that of co-incubation"}, {"measurement": "inhibition of HBV infection (in words)", "setting": "[5]; HepG2-NTCP cells", "result": "high antiviral activity; also recorded: greatly improved potency"}, {"measurement": "IC50", "setting": "[5]; [8]", "result": 51, "unit": "nM"}, {"measurement": "IC50", "setting": "[5]; read-out: IC50 for inhibiting HBV infection, HepG2-NTCP cells, PBAD present during infection, HBeAg in medium at 5 dpi", "result": 51, "unit": "nM"}, {"measurement": "inhibition of NTCP substrate uptake (in words)", "setting": "[6]", "result": "significantly higher efficiency than that of TUDCA"}, {"measurement": "IC50", "setting": "[6]", "result": 58.7, "unit": "nM"}, {"measurement": "concentration up to which no detectable cytotoxicity was observed", "setting": "[7]; human, 48 h", "result": 200, "unit": "µM"}]}, {"compound": "C[C@H](CCC(=O)O[C@H]1CC[C@@]2(C)C(C1)C[C@H](O)C1[C@H]3CC[C@H]([C@H](C)CCC(=O)NCCS(=O)(=O)O)[C@@]3(C)CC[C@H]12)[C@H]1CC[C@@H]2C3[C@@H](CC[C@@]21C)[C@@]1(C)CC[C@H](O)CC1C[C@@H]3O", "note": "(stereo partly shown) [NQL-012]", "values": [{"measurement": "inhibition of HDV infection (in words)", "setting": "[2]", "result": "high antiviral activity; also recorded: greatly improved potency"}, {"measurement": "inhibition of HBV infection (in words)", "setting": "[5]; HepG2-NTCP cells", "result": "high antiviral activity; also recorded: greatly improved potency"}, {"measurement": "IC50", "setting": "[5]; [8]", "result": 100, "unit": "nM"}, {"measurement": "inhibition of NTCP substrate uptake (in words)", "setting": "[6]", "result": "significantly higher efficiency than that of TUDCA"}, {"measurement": "IC50", "setting": "[6]", "result": 109, "unit": "nM"}, {"measurement": "LD50", "setting": "[7]; HepG2-NTCP, 48 hrs treatment, then 3 days culture in PMM", "result": "~25", "unit": "µM"}]}, {"compound": "C[C@H](CCC(=O)O[C@H]1CC[C@@]2(C)C(C1)C[C@H](O)C1[C@H]3CC[C@H]([C@H](C)CCC(=O)O[C@H]4CC[C@@]5(C)C(C4)C[C@H](O)C4[C@H]6CC[C@H]([C@H](C)CCC(=O)NCCS(=O)(=O)O)[C@@]6(C)CC[C@H]45)[C@@]3(C)CC[C@H]12)[C@H]1CC[C@@H]2C3[C@@H](CC[C@@]21C)[C@@]1(C)CC[C@H](O)CC1C[C@@H]3O", "note": "(stereo partly shown) [NQL-016]", "values": [{"measurement": "inhibition of HDV infection (in words)", "setting": "[2]", "result": "not as high as the dimeric counterparts"}, {"measurement": "effect on FITC-preS1 peptide at high concentration", "setting": "[4]; high concentration of compound", "result": "aggregation of FITC-preS1 peptide"}, {"measurement": "inhibition of HBV infection (in words)", "setting": "[5]; HepG2-NTCP cells", "result": "not as high as the dimeric counterparts"}]}]}
